Test results as given in patent EP1566447A1, “Glimepiride- and insulin-induced glycosylphosphatidylinositol-specific phospholipase C regulation” (priority 2004, dated 2005).
pIC50: −log10 of the molar value.

Columns and labels:
[1] = target: phospholipase A2 (honey bee venom) (Apis mellifera, UniProt P00630); format: biochemical; conditions: 50 µM
cabbage PLD = experiment: selectivity: PLD assay; format: biochemical; conditions: 50 µM
Experimental: (§1) Hormone-sensitive lipase (HSL) and lipoprotein lipase (LPL) were measured using a radiolabeled triolein droplet emulsion as described in "Vertesy et al., (2002) Journal Antibiotics 55:480-494". Pancreatic lipase (PL) was determined by incubation of 0.25 mmol tributyrin in 2 ml of 5 mM Tris/HCl (pH 6.5), 6 mM sodium taurodeoxycholate, 150 mM NaCl, 1 mM CaCl2 with porcine PL and colipase in the same buffer using a recording pH stat (stirring at 1000 rpm at 25°C) with the pH adjusted to 6.5. PC-PLC was assayed by incubation of 0.2 ml of 10 mM dipalmitoyllecithin, 0.1 ml of 10 mM SDC and 0.1 ml of 0.03 M CaCl2 with bacterial PC-PLC (in 50 mM Tris/HCl, pH 7.5, 0.1 % BSA) for 10 min at 37°C. The reaction was terminated by addition of 0.1 ml of 50 % TCA and subsequently of 2.5 ml of […]. After centrifugation (1500xg, 15 min), 0.2-ml portions of the upper methanol/water phase (~ 1.33 ml) was removed, supplemented with 0.5 ml of 60 % HClO4, then heated at 170°C for 1 h and finally analyzed for inorganic phosphate. Mammalian PI-PLC was measured by incubation of 0.1 ml of 10 mM PI, 0.1 ml of 0.8 % sodium deoxycholate, 0.1 % BSA, 0.2 ml of 100 mM sodium borate (pH 7.5) and rat liver PI-PLC for 20 min at 37°C. The reaction was terminated and further processed as described for the PC-PLC. […] Radioactive phosphatidic acid was detected by phosphorimaging. […]

bacterial PC-PLC = target: T1, bacterial PC-PLC (Bacillus cereus, UniProt P09598); experiment: selectivity: PC-PLC assay; format: biochemical; conditions: 50 µM
T1 construct: purchased Sigma/Aldrich (Deisenhofen, Germany)

GPI-PLC = conditions: read-out: IC50 for inhibition of the GPI-PLC; isolated intact hcDIGs; Fig. 4 Panels B, D
Pancreatic lipase (PL) = target: T2, Pancreatic lipase (PL) (Sus scrofa, UniProt P00591); experiment: selectivity: pancreatic lipase assay; format: biochemical, porcine; conditions: 50 µM
T2 construct: crude porcine pancreatic lipase (PL); purchased Sigma/Aldrich (Deisenhofen, Germany); host or cells: porcine pancreas (crude preparation)
T2 sequence (P00591 1-450): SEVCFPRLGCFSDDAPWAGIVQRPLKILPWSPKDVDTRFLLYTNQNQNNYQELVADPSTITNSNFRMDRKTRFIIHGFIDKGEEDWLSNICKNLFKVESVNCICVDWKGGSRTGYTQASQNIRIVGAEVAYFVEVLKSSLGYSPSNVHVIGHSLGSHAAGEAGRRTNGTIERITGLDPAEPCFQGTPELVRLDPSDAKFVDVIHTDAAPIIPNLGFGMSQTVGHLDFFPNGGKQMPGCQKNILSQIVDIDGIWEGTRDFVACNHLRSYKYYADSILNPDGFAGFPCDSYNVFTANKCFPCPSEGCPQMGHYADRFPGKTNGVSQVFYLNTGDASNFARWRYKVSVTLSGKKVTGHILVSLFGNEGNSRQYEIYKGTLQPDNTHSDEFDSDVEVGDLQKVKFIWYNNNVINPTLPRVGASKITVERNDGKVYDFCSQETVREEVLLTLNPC
T2 sequence (P02703 23-112 partner): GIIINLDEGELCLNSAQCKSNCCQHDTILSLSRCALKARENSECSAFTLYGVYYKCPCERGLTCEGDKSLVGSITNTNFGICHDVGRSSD
Experimental: as §1

phospholipase A2 (honey bee venom), sequence (P00630 34-167 limits assumed): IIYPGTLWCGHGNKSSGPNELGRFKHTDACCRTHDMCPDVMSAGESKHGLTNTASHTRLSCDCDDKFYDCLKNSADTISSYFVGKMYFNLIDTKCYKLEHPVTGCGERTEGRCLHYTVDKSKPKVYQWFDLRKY
T1 sequence (P09598 39-283 limits assumed): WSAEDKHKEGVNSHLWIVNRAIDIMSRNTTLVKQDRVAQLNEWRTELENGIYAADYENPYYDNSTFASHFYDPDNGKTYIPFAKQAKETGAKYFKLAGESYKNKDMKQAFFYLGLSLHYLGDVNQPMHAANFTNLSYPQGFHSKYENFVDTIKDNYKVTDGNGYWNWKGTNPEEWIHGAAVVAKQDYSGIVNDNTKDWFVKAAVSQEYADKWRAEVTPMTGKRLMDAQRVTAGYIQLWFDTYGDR

CCCCCCCCCCCCP1(=O)O[C@@H]2[C@H](O)[C@@H](O)[C@H](O)[C@@H](O)[C@@H]2O1 (mixture of isomers) [GPI-2350, myo-inositol-1,2-cyclo-dodecylphosphonic acid]
effect on phospholipase activity [1]: not significantly affected | effect on phospholipase activity (cabbage PLD): not significantly affected | effect on phospholipase activity (bacterial PC-PLC): not significantly affected | pIC50 (GPI-PLC): 6.00 | effect on lipase activity (Pancreatic lipase (PL)): not significantly affected
